In one series the test system is Apis mellifera. The following applies: acute; duration: 48 hours; oral; unspecified; mortality.
In the next series the test system is Bibionidae. The following applies: chronic/long-term; duration: 28 days; seedling emergence.
The next series concerns Danio rerio. The following applies: acute; duration: 96 hours; mortality.
The test system of the next series is Daphnia magna. The following applies: chronic/long-term; duration: 21 days; reproduction.
Another series relates to Oryctolagus sp. The following applies: reproduction developmental; body weight.
The test system of another series is Tagia sp. The settings on record: acute; duration: 14 days; mortality.
The next series has as its system Aphidius rhopalosiphi. The experiment in a line: LR50; higher = less toxic. The settings on record: not reported; mortality.

Converted amounts (≈) assume the structure as drawn.

With `c1ccc(CNc2ncnc3nc[nH]c23)cc1` [N-Benzyladenine], the LD50 is more than 58.7 µg/piece in the series on Apis mellifera; 1600 mg/kg-day with Colinus virginianus (acute, oral, mortality); 1580 mg/kg-day in the series with Rattus norvegicus (acute, oral, mortality). The NOEC in the series with Bibionidae is 4.52 mg/L; with Colinus virginianus (reproduction developmental) it was 41.3 mg/kg-day; in the series with Daphnia magna, 4 mg/L. In addition, the LC50 with Colinus virginianus (acute, oral, diet, mortality) was more than 2880 mg/kg-day; in the series on Danio rerio, 32 µg/mL (≈ 142 µM); with Tagia sp. it was more than 1000 mg/kg. Besides, the no observed adverse effect level (NOAEL) in the series on Oryctolagus sp. was less than 10 mg/kg-day. The compound further gave an NOEL with Rattus norvegicus (reproduction developmental, body weight) of 30 mg/kg-day. In the series on Aphidius rhopalosiphi, this compound gave an LR50 of 36.2 g/ha.

One may read the NOAEL as the highest tested level that showed no adverse finding.

For the origin of these results see EPA's ToxValDB 9.5 (doi:10.2903/j.efsa.2010.1716).
